Assay results from patent US20040033587A1, “Method and device for detecting Biologically Active Substances” (Bayer Aktiengesellschaft, priority 2002, published 2004).

Tested on: Vibrio fischeri
Experiment: increase in luminescence of Vibrio fischeri culture with addition of aspartic acid to the cultivation medium
Format: cell-based
Conditions: 12.5 mg of aspartic acid added to cultivation medium; aspartic acid-free medium starts only at a later time
Experimental: In two cultivation experiments carried out in parallel, bacterial suspensions were prepared according to the method described below. In order to test the influence of aspartic acid, 12.5 mg of aspartic acid had been added to the cultivation medium of one of the two reaction mixtures. The effect of the addition of aspartic acid was detected by taking luminescence images using the Nightowl camera system from EG&G Berthold and is depicted in FIGS. 2a and 2b.
A tissue culture flask (e.g. Falcon Cat. No. 353110) which contains 125 ml of cultivation medium and a magnetic stirring bar was inoculated with bacteria from a Vibrio fischeri strain stock. The inoculated cultivation solution was then incubated with slow stirring on a magnetic stirrer at room temperature.

N[C@@H](CC(=O)O)C(=O)O [aspartic acid]
incubation time after which the culture showed a distinct luminescence: ≤ 18 h
